Data published in ChEMBL document CHEMBL1649240, “Brain penetration of colistin in mice assessed by a novel high-performance liquid chromatographic technique” (Antimicrob Agents Chemother, 2009).

What was measured:
Type in all cases: ADME, organism-based
Parameters in all cases: dose 5 mg/kg, route intravenous
Brain [1] = assay: Drug level in mouse brain homogenate assessed as compound recovery after 4 hr post dose measured on basis of intraday target compound concentration of 93.8 ng/g of brain tissue at 5 mg/kg, iv bolus dose by HPLC; conditions: in vivo
[2] = Ratio of drug level in brain to plasma in Swiss mouse at 5 mg/kg, iv
Brain [3] = assay: Drug level in mouse brain homogenate assessed as compound recovery after 4 hr post dose measured on basis of intraday target compound concentration of 375 ng/g of brain tissue at 5 mg/kg, iv bolus dose by HPLC; conditions: in vivo
Brain [4] = assay: Drug level in mouse brain homogenate assessed as compound recovery after 4 hr post dose measured on basis of intraday target compound concentration of 3000 ng/g of brain tissue at 5 mg/kg, iv bolus dose by HPLC; conditions: in vivo

- Activity (Brain [1]): 87%
- Ratio [2]: 0.02
- Activity (Brain [3]): 86%
- Activity (Brain [4]): 96%
Sequence: COLISTIN
